# Measured values published in PMC7790160 (Journal of pharmaceutical sciences, 2020).
# Columns and labels:
# HCC827 [1] = assay: Cytotoxicity assay; format: cell-based; details: HCC827, 48 h, single agent; no unit printed in Table 3 (b74 gives μM)
# [2] = test system: HCC827–4 μM (Acquired 4 μM ERL Resistant); assay: Cytotoxicity assay; format: cell-based; details: 48 h, single agent, no unit printed in Table 3 (b74 gives μM)
# [3] = test system: HCC827-Cl4 (T790M EGFR ERL Resistant); assay: Cytotoxicity assay; format: cell-based; details: HCC827-CL4, 48 h, single agent; no unit printed in Table 3 (b74 gives μM)
# [4] = test system: H1975 (T790M EGFR ERL Resistant); assay: Cytotoxicity assay; format: cell-based; details: H1975, 48 h, single agent; no unit printed in Table 3 (b74 gives μM)
# [5] = test system: H1975-CL1 (EGFR G796D mutation rociletinib resistant); assay: Cytotoxicity assay; format: cell-based; details: H1975 CL1, 48 h, single agent; no unit printed in Table 3 (b74 gives μM)
# H460 (KRAS mutated) = assay: Cytotoxicity assay; format: cell-based
# H1299 (p53 mutated) = assay: Cytotoxicity assay; format: cell-based; details: H1299, 48 h, single agent
# NSCLC cell lines = assay: Cytotoxicity assay, statements across cell lines; format: cell-based
# HCC827 [6] = assay: Apoptosis assay; format: cell-based; details: 12 μM ERL, 2 μM CDODA-Me alone or in combination, 48 h
# total EGFR = assay: Western blot analysis of total EGFR; format: cell-based; details: all cell lines, 48 h
# total MET = assay: Western blot analysis of total MET; format: cell-based; details: all cell lines, 48 h
# [7] = cited from earlier work
# HCC827–4μM = assay: Apoptosis assay; format: cell-based; details: 12 μM ERL alone or with 2 μM CDODA-Me, 48 h
# HCC827-CL4 = assay: Apoptosis assay; format: cell-based; details: 12 μM ERL alone or with 2 μM CDODA-Me, 48 h
# H1975 = assay: Apoptosis assay; format: cell-based; details: 12 μM ERL alone or with 2 μM CDODA-Me, 48 h
# H1975-CL1 = assay: Apoptosis assay; format: cell-based; details: 12 μM ERL alone or with 2 μM CDODA-Me, 48 h
# H460 [8] = assay: Apoptosis assay; format: cell-based; details: 12 μM ERL alone or with 2 μM CDODA-Me, 48 h
# HCC827 [9] = assay: Clonogenic assay; format: cell-based; details: 12 μM ERL, 48 h, reseeded, p < 0.001
# HCC827–4 μM = assay: Clonogenic assay; format: cell-based; details: 12 μM ERL, 48 h, reseeded, p < 0.001
# H460 [10] = assay: Clonogenic assay; format: cell-based; details: 12 μM ERL, 48 h, reseeded, p < 0.001
# p-EGFR = assay: Western blot analysis of p-EGFR; format: cell-based; details: 48 h
# p-MET = assay: Western blot analysis of p-MET; format: cell-based; details: 12 μM ERL alone or with 2 μM CDODA-Me, 48 h
# [11] = test system: EGFR mutated non–small cell lung cancer; details: patients harboring exon 19 deletion / exon 21 EGFR mutations; cited from earlier work
compound,measurement,setting,value
"COC(=O)[C@@]1(C)CC[C@]2(C)CC[C@]3(C)C(=CC(=O)[C@@H]4[C@@]5(C)C=C(C#N)C(=O)C(C)(C)[C@@H]5CC[C@]43C)[C@@H]2C1 [CDODA-Me, Methyl 2-cyano-3, 11-dioxo-18b-olean-1, 12-dien-30-oate]",IC50,HCC827 [1],4.5 ± 1.6 µM
same,IC50,[2],4.4 ± 1.3 µM
same,IC50,[3],5.7 ± 2.04 µM
same,IC50,[4],6.2 ± 1.64 µM
same,IC50,[5],6.6 ± 1.1 µM
same,IC50,"H460 (KRAS mutated); H460, 48 h, single agent, no unit printed in Table 3 (b74 gives μM)",5.5 ± 0.8 µM
same,IC50,H1299 (p53 mutated),5.4 ± 2.4 µM
same,cell viability,"NSCLC cell lines; 2 μM, all cell lines",< 20%
same,IC20,NSCLC cell lines; resistant HCC827 cells,2 µM
same,apoptotic cells,HCC827 [6],approximately 21.68 ± 1.8%
same,total EGFR expression,total EGFR,no effect
same,total MET expression,total MET,no effect
same,permeability (classification),[7],high permeability
same,solubility (classification),[7],low solubility
"C#Cc1cccc(Nc2ncnc3cc(OCCOC)c(OCCOC)cc23)c1 [ERL, erlotinib]",IC50,"H460 (KRAS mutated); Homo sapiens, NCI-H460, 48 h",16.3 ± 1.2 µM
same,apoptotic cells,HCC827 [6],~64.23 ± 1.7%
same,apoptotic cells,HCC827–4μM,11 ± 2.9%
same,apoptotic cells,HCC827-CL4,8 ± 2.5%
same,apoptotic cells,H1975,15 ± 3.7%
same,apoptotic cells,H1975-CL1,9 ± 2.7%
same,apoptotic cells,H460 [8],5 ± 4.3%
same,colony formation,HCC827 [9],decreased colony formation
same,colony formation,HCC827–4 μM,decreased colony formation
same,colony formation,H460 [10],decreased colony formation
same,p-EGFR expression,"p-EGFR; H1975-CL1, 12 μM ERL alone or with 2 μM CDODA-Me",not significant
same,P-EGFR expression,"p-EGFR; HCC827, 12 μM ERL (p < 0.01) or 12 μM ERL + 2 μM CDODA-Me (p < 0.05)",significantly decreased
same,expression of p-MET,"p-MET; H1975-CL1, p < 0.001",decreased p-MET expression
same,expression of p-MET,"p-MET; H1975, p < 0.01",decreased p-MET expression
same,expression of p-MET,"p-MET; HCC827-CL4, p < 0.01",decreased p-MET expression
same,patients with decreased tumor volume,[11],70%
